According to article PMC9126943, “ADAMTS4-specific MR probe to assess aortic aneurysms in vivo using synthetic peptide libraries” (Nature Communications, 2022):
Where a SMILES comes first, the peptide text is derived from it. Bridges are numbered along the chain shown (N, C = ends). The star is where a group is joined. Cy5(nonsulfonated) = CN1C(=CC=CC=CC2=[N+](CCCCCC(=O)*)c3ccccc3C2(C)C)C(C)(C)c2ccccc21

Target: T1, ADAMTS4 (Homo sapiens, UniProt O75173)
T1 construct: This is consistent with the recombinant proteins, we used in the screening process; purchased BioTeZ Berlin-Buch GmbH 30 400 102
T1 sequence (O75173 213-685): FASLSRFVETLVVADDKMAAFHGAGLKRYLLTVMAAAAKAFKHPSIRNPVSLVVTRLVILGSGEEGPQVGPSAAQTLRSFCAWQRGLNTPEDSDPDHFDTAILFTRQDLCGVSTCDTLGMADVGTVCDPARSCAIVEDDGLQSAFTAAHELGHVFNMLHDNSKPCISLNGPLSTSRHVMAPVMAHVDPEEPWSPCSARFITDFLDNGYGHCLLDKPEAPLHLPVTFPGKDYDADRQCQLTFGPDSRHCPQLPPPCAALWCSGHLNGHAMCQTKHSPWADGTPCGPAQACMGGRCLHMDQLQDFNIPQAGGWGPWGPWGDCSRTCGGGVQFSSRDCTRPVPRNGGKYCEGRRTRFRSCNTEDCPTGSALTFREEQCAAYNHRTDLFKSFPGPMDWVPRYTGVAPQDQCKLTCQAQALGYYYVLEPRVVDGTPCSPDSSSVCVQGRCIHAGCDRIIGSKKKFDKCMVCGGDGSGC
Assay: MST instrument, ligand-dependent fluorescence change, Cy5-labeled peptides vs ADAMTS4 (incl. alanine scan)
Type: binding
Settings: Cy5-labeled peptide 3 nM, 25 °C, n = 3
Protocol: Microscale thermophoresis (MST) was performed on a Monolith Pico (NanoTemper, Munich, Germany). The Cy5-labeled peptides were diluted into the MST buffer (150 mM NaCl, 50 mM TRIS-HCl, 5 mM CaCl2, and Tween-20) to reach a dilution of 6 nM. ADAMTS4, ADAMTS5, and ADAMTS1 were directly used with the supplied concentration. For ADAMTS4, the starting concentration was 4.96 µM, while for ADAMTS1 it was 4.88 µM and for ADAMTS5 it was 2.46 µM. […] 20 µl of the protein solutions were transferred into a PCR tube. 10 µl of this first vial was transferred into a second vial and mixed by pipetting with 10 µl of the MST buffer. The dilution series was continued 14 times. From tube 16, 10 µl were removed. Into all 16 tubes, 10 µl of the respective peptide solution were added and mixed by pipetting. The samples were incubated for 20 min and subsequently transferred to premium capillaries (NanoTemper, Munich, Germany). The capillaries were transferred into the Monolith tray and measured with 10% excitation power on the pico-red excitation on high MST power at 25 °C. Analysis was performed with MO.Affinity Analysis v3.0.1 (NanoTemper, Munich, Germany) and Origin 2022 (OriginLab Corporation, Northampton, MA). […] We checked for ADAMTS4 and the ADAMTS4-specific-Cy5-labeled probe via a saturation test for specifying the ligand-dependent fluorescence change. Therefore, the three highest ligand concentrations and the three lowest ligand concentrations of the measurement were used and centrifuged for 15 min at 16060 x g at 20 °C. Of each concentration, 7 µl were picked and mixed with 7 µl of a 10 M urea solution each. The samples were heated at 95 °C for 5 min and measured in the MST. […] Each measurement was repeated three times independently and the binding constant was calculated by merging all three measurements. […] The data were normalized using MO Affinity Analysis v3.0.1 and the fraction bound [−] was shown. […] Therefore, the percentage variance of the values to the average was plotted.
All measurements were performed with 10% LED power, high MST power and at 25 °C. The ligand dependent fluorescence change was used for determining the binding. […] The concentrations of the peptide were kept constant (3 nM in the measurement), while the proteins were diluted in the same manner as for ADAMTS4. […] The Cy5-labeled peptides (3 nM in the measurement) were kept constant, while ADAMTS4 was diluted in the same manner for each peptide (n=3 biologically independent measurements for each peptide; the data are presented as mean values ± SD). […] MST: microscale thermophoresis; nM: nanomolar; His: L-histidine; LED: light-emitting diode; n/a: not available; KD: binding constant.

C[N+]1=C(C=CC=CC=C2N(CCCCCC(=O)NCCCC[C@H](NC(=O)CNC(=O)CNC(=O)[C@H](CO)NC(=O)CNC(=O)CNC(=O)[C@H](CO)NC(=O)[C@@H]3CSSC[C@H](N)C(=O)N[C@@H](CO)C(=O)N[C@@H](CCCNC(=N)N)C(=O)N[C@@H](CCCNC(=N)N)C(=O)NCC(=O)N3)C(=O)NCC(N)=O)c3ccccc3C2(C)C)C(C)(C)c2ccccc21 [Cy5-labeled probe] (H-CSRRGCSGGSGGK(Cy5(nonsulfonated))G-NH2; disulfide 1-6; N-terminus and C-terminus assumed)
binding to ADAMTS4 (ligand-dependent fluorescence change), in words: a ligand dependent fluorescence change occurs
